# Counter-ions that a name gives are not always drawn.
# Experiments:
# [1] = tested on: lung eosinophil accumulation; assay: Antigen-induced lung eosinophil accumulation in sensitised guinea pigs; format: in vivo, guinea pig; settings: airstream concentration; inhaled route, 30 min aerosol before ovalbumin challenge; lavage 24 h after challenge
# Description: (2) Antigen-induced lung eosinophil accumulation in sensitised guinea pigs.
# Ovalbumin sensitised guinea pigs were dosed with mepyramine (1 mg/kg ip) to protect against anaphylactic bronchospasm. A compound of the invention was then given by the inhaled route (30 min breathing of an aerosol of the compound) immediately prior to ovalbumin challenge (30 min breathing of an aerosol generated from a 50 ug/ml solution of ovalbumin). Twenty four hours after challenge, the guinea pigs were killed and the lungs lavaged. Total and differential leucocyte counts were then obtained for the bronchoalveolar lavage fluid and the dose of test compound giving a 50% reduction in eosinophil accumulation (ED50) was determined (Sanjar et al. 1992).
# adenosine 2a receptor = adenosine 2a receptor (Homo sapiens, UniProt P29274); assay: Agonist activity against adenosine 2a receptor (CHO cells, cAMP/SPAP reporter); format: cell-based; settings: CHO cells transfected with human receptor; basal cAMP via SPAP; mean of all the versions tested
# Description: (§1) (1) Agonist activity against adenosine 2a, adenosine 1 and adenosine 3 receptor subtypes.
# (§2) The effect of test compounds was determined by their effects on basal levels of cAMP (A2a) or on forskolin-enhanced cAMP (A1 and A3) as reflected by changes in levels of SPAP.
# adenosine 3 receptor = target: T1, adenosine 3 receptor (Homo sapiens, UniProt P0DMS8); assay: Agonist activity against adenosine 3 receptor (CHO cells, forskolin-enhanced cAMP/SPAP reporter); format: cell-based; settings: CHO cells transfected with human receptor; forskolin-enhanced cAMP via SPAP; mean of all the versions tested
# T1 sequence (P0DMS8 1-318): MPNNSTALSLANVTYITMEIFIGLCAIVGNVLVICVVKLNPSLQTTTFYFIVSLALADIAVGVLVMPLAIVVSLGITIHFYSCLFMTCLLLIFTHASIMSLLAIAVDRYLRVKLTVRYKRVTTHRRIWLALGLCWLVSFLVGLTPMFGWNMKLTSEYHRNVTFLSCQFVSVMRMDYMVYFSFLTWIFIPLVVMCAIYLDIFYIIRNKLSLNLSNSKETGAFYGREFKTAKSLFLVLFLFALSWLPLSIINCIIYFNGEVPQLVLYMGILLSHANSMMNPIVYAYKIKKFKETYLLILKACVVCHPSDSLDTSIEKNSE
# Description: as §1, §2
# adenosine 1 receptor = target: T2, adenosine 1 receptor (Homo sapiens, UniProt P30542); assay: Agonist activity against adenosine 1 receptor (CHO cells, forskolin-enhanced cAMP/SPAP reporter); format: cell-based; settings: CHO cells transfected with human receptor; forskolin-enhanced cAMP via SPAP; mean of all the versions tested
# T2 sequence (P30542 1-326): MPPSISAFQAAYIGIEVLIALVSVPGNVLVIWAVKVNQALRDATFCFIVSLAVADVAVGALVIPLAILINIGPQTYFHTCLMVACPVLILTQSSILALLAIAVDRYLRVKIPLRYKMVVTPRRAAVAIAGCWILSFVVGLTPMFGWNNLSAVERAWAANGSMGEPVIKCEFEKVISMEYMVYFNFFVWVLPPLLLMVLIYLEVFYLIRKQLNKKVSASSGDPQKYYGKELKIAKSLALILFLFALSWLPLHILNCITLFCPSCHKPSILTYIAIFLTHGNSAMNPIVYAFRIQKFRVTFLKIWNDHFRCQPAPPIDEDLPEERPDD
# Description: as §1, §2
# adenosine 2a receptor, sequence (P29274 whole entry): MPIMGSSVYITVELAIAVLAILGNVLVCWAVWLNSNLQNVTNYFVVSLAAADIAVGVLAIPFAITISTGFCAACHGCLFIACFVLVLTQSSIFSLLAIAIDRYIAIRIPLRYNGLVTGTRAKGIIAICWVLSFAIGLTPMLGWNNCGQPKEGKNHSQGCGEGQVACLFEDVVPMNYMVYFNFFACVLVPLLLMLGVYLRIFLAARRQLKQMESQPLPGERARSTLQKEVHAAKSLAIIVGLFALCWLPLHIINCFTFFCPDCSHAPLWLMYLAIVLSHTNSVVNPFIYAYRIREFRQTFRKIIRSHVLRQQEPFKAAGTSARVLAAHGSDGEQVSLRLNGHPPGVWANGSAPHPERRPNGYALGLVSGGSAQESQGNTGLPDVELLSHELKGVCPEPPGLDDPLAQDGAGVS
Structure (SMILES),ED50 (50% reduction in eosinophil accumulation) [1],A2a EC50 as a ratio of that of NECA (adenosine 2a receptor),A3 EC50 as a ratio of that of NECA (adenosine 3 receptor),A1 EC50 as a ratio of that of NECA (adenosine 1 receptor)
"CCn1nnc([C@H]2O[C@@H](n3cnc4c(NCC(c5ccccc5)c5ccccc5)nc(N[C@H]5CC[C@H](N)CC5)nc43)[C@H](O)[C@@H]2O)n1.Cl.Cl (relative stereo) [Example 1a, rel-(2R,3R,4S,5R)-2-[2-(trans-4-Amino-cyclohexylamino)-6-(2,2-diphenyl-ethylamino)-purin-9-yl]-5-(2-ethyl-2H-tetrazol-5-yl)-tetrahydro-furan-3,4-diol Dihydrochloride]",6 ng/mL,–,–,–
"CCn1nnc([C@H]2O[C@@H](n3cnc4c(N)nc(N[C@H](CO)Cc5ccccc5)nc43)[C@H](O)[C@@H]2O)n1.Cl [Example 11a, (2R,3R,4S,5R)-2-[6-Amino-2-(1S-hydroxymethyl-2-phenyl-ethylamino)-purin-9-yl]-5-(2-ethyl-2H-tetrazol-5-yl)-tetrahydro-furan-3,4-diol Hydrochloride]",6 ng/mL,–,–,–
"CCn1nnc([C@H]2O[C@@H](n3cnc4c(NCC(c5ccccc5)c5ccccc5)nc(NC5CCNC5)nc43)[C@H](O)[C@@H]2O)n1.O=C(O)C(F)(F)F.O=C(O)C(F)(F)F.O=C(O)C(F)(F)F (stereo partly drawn) [Example 2, (2R,3R,4S,5R)-2-[6-(2,2-Diphenyl-ethylamino)-2-(pyrrolidin-3-ylamino)-purin-9-yl]-5-(2-ethyl-2H-tetrazol-5-yl)-tetrahydro-furan-3,4-diol tris(Trifluoroacetate)]",–,0.92,>216,123.6
"CCn1nnc([C@H]2O[C@@H](n3cnc4c(NCC(c5ccccc5)c5ccccc5)nc(NCCN5CCOCC5)nc43)[C@H](O)[C@@H]2O)n1.O=C(O)C(F)(F)F.O=C(O)C(F)(F)F.O=C(O)C(F)(F)F [Example 44, (2R,3R,4S,5R)-2-[6-(2,2-Diphenyl-ethylamino)-2-(2-morpholin-4-yl-ethylamino)-purin-9-yl]-5-(2-ethyl-2H-tetrazol-5-yl)-tetrahydro-furan-3,4-diol tris(Trifluoroacetate)]",–,3.25,>546,44.11
"Cn1cnc(CCNc2nc(NCC(c3ccccc3)c3ccccc3)c3ncn([C@@H]4O[C@H](c5nnn(C)n5)[C@@H](O)[C@H]4O)c3n2)c1.O=CO [Example 27, (2R,3R,4S,5R)-2-{6-(2,2-Diphenyl-ethylamino)-2-[2-(1-methyl-1H-imidazol-4-yl)-ethylamino]-purin-9-yl}-5-(2-methyl-2H-tetrazol-5-yl)-tetrahydro-furan-3,4-diol Formate]",–,0.08,>286,449.7
"Cn1cnc(CCNc2nc(NC(CO)Cc3ccccc3)c3ncn(C4OC(c5nnn(C)n5)C(O)C4O)c3n2)c1 [Example 32, (2R,3R,4S,5R)-2-{6-(1S-Hydroxymethyl-2-phenyl-ethylamino)-2-[2-(1-methyl-1H-imidazol-4-yl)-ethylamino]-purin-9-yl}-5-(2-methyl-2H-tetrazol-5-yl)-tetrahydro-furan-3,4-diol Formate]",–,0.026,>100,56.2
"Cn1nnc(C2OC(n3cnc4c(NC(CO)Cc5ccccc5)nc(NCCN5CCCC5)nc43)C(O)C2O)n1 [Example 111, (2R,3R,4S,5R)-2-[6-(1S-Hydroxymethyl-2-phenyl-ethylamino)-2-(2-pyrrolidin-1-yl-ethylamino)-purin-9-yl]-5-(2-methyl-2H-tetrazol-5-yl)-tetrahydro-furan-3,4-diol bis(Formate)]",–,2.92,>315,298.50

# — patent publication US6528494B2 (priority 1996, dated 2003)
